The assay deals with PD-1/PD-L1 (Homo sapiens, UniProt Q9NZQ7). The experiment in a line: TR-FRET PD-1/PD-L1 binding inhibition at the molecular level (free proteins). The note with it: Tag1-PD-L1 and Tag2-PD-1 proteins, twelve concentrations from 200 nM, 2 hours at room temperature, read-out: FRET assay (IC50). The essentials: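 HTRF read-out at 665/620 nm after 2 h at room temperature. Detection used anti-Tag1 Eu cryptate plus anti-Tag2 XL665 antibodies. Tagged PD-L1 and PD-1 proteins were pre-mixed with compound across twelve […] 1:2 dilutions starting at 200 nM.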
(In general: In TR-FRET formats the signal depends on donor and acceptor labels being close together.)

Among the data in EP4755888A1 (ILAb Co., Ltd., priority 2023, dated 2025) are IC50 values, retold here.

Bounds are passed on as bounds.

PD-1/PD-L1, sequence (Q9NZQ7 19-238 limits assumed): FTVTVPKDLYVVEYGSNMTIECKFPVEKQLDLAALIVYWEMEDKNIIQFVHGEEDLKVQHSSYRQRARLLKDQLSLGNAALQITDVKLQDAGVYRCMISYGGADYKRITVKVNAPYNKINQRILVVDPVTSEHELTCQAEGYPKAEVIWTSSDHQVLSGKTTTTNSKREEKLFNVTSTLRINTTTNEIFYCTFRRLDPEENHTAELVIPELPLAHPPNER

Broadly, the IC50 is the concentration that inhibits the measured activity by half. For the molecule `N#Cc1cc(CN2CC[C@@H](C(=O)O)C2)cc2nc(-c3cccc(-c4cccc(NC(=O)c5cc6n(n5)CCCC6O)c4Cl)c3Cl)oc12` (stereo partly drawn) [Compound 67, (3R)-1-((7-cyano-2-(2,2'-dichloro-3'-(4-hydroxy-4,5,6,7-tetrahydropyrazolo[1,5-a]pyridine-2-carboxamido)-[1,1'-biphenyl]-3-yl)benzo[d]oxazol-5-yl)methyl)pyrrolidine-3-carboxylic acid], the IC50 was less than 10 nM.
In the case of `N#Cc1cc(CN2CC[C@@H](C(=O)O)C2)cc2nc(-c3cccc(-c4cccc(NC(=O)c5cc6n(n5)CCCC6NC[C@@H]5CCC(=O)N5)c4Cl)c3Cl)oc12` (stereo partly drawn) [Compound 68, (3R)-1-((7-cyano-2-(2,2'-dichloro-3'-(4-((((S)-5-oxopyrrolidin-2-yl)methyl)amino)-4,5,6,7-tetrahydropyrazolo[1,5-a]pyridine-2-carboxamido)-[1,1'-biphenyl]-3-yl)benzo[d]oxazol-5-yl)methyl)pyrrolidine-3-carboxylic acid], the IC50 is less than 10 nM.
With `CC(=O)NCCNC1CCCn2nc(C(=O)Nc3cccc(-c4cccc(-c5nc6cc(CN7CC[C@@H](C(=O)O)C7)cc(C#N)c6o5)c4Cl)c3Cl)cc21` (stereo partly drawn) [Compound 69, (3R)-1-((2-(3'-(4-((2-acetamidoethyl)amino)-4,5,6,7-tetrahydropyrazolo[1,5-a]pyridine-2-carboxamido)-2,2'-dichloro-[1,1'-biphenyl]-3-yl)-7-cyanobenzo[d]oxazol-5-yl)methyl)pyrrolidine-3-carboxylic acid] the figure was less than 10 nM; with `N#Cc1cc(CN2CC[C@@H](C(=O)O)C2)cc2nc(-c3cccc(-c4cccc(NC(=O)c5cc6n(n5)CCCC6NCCO)c4Cl)c3Cl)oc12` (stereo partly drawn) [Compound 70, (3R)-1-((7-cyano-2-(2,2'-dichloro-3'-(4-((2-hydroxyethyl)amino)-4,5,6,7-tetrahydropyrazolo[1,5-a]pyridine-2-carboxamido)-[1,1'-biphenyl]-3-yl)benzo[d]oxazol-5-yl)methyl)pyrrolidine-3-carboxylic acid], less than 10 nM.
Turning to `Cc1c(NC(=O)c2ccc(CNCCO)cn2)cccc1-c1cccc(NC(=O)c2cc3n(n2)CCCC3O)c1C` (centres unmarked) [Compound 71, 4-hydroxy-N-(3'-(5-(((2-hydroxyethyl)amino)methyl)picolinamido)-2,2'-dimethyl-[1,1'-biphenyl]-3-yl)-4,5,6,7-tetrahydropyrazolo[1,5-a]pyridine-2-carboxamide], the IC50 was less than 10 nM.
Then `CC(=O)NCCNC1CCCn2nc(C(=O)Nc3cccc(-c4cccc(NC(=O)c5ccc(CNCCO)cn5)c4C)c3C)cc21` (centres unmarked) [Compound 72, 4-((2-acetamidoethyl)amino)-N-(3'-(5-(((2-hydroxyethyl)amino)methyl)picolinamido)-2,2'-dimethyl-[1,1'-biphenyl]-3-yl)-4,5,6,7-tetrahydropyrazolo[1,5-a]pyridine-2-carboxamide], with less than 10 nM.
As for `Cc1c(NC(=O)c2ccc(CNCCO)cn2)cccc1-c1cccc(NC(=O)c2cc3n(n2)CCCC3N2CC[C@@H](O)C2)c1C` (stereo partly drawn) [Compound 73, N-(3'-(5-(((2-hydroxyethyl)amino)methyl)picolinamido)-2,2'-dimethyl-[1,1'-biphenyl]-3-yl)-4-((R)-3-hydroxypyrrolidin-1-yl)-4,5,6,7-tetrahydropyrazolo[1,5-a]pyridine-2-carboxamide], the IC50 is less than 10 nM.
With `Cc1c(NC(=O)c2ccc(CNCCO)cn2)cccc1-c1cccc(NC(=O)c2cc3n(n2)CCCC3NCCO)c1C` (centres unmarked) [Compound 74], the IC50 was less than 10 nM.
Then `Cc1c(NC(=O)c2ccc(CNCCO)cn2)cccc1-c1cccc(NC(=O)c2cc3n(n2)CCCC3NCC2CCC(=O)N2)c1C` (centres unmarked) [Compound 75, N-(3'-(5-(((2-hydroxyethyl)amino)methyl)picolinamido)-2,2'-dimethyl-[1,1'-biphenyl]-3-yl)-4-(((5-oxopyrrolidin-2-yl)methyl)amino)-4,5,6,7-tetrahydropyrazolo[1,5-a]pyridine-2-carboxamide], with less than 10 nM; and `Cc1c(NC(=O)c2ccc(CNCCO)cn2)cccc1-c1cccc(NC(=O)c2cc3n(n2)CCCC3NCC(=O)O)c1C` (centres unmarked) [Compound 76, 2-((2-((3'-(5-(((2-hydroxyethyl)amino)methyl)picolinamido)-2,2'-dimethyl-[1,1'-biphenyl]-3-yl)carbamoyl)-4,5,6,7-tetrahydropyrazolo[1,5-a]pyridin-4-yl)amino)acetic acid], with less than 10 nM; and `Cc1c(NC(=O)c2ccc(CNCCO)cn2)cccc1-c1cccc(NC(=O)c2cc3n(n2)CCCC3N2CC[C@@H](C(=O)O)C2)c1C` (stereo partly drawn) [Compound 77, (3R)-1-(2-((3'-(5-(((2-hydroxyethyl)amino)methyl)picolinamido)-2,2'-dimethyl-[1,1'-biphenyl]-3-yl)carbamoyl)-4,5,6,7-tetrahydropyrazolo[1,5-a]pyridin-4-yl)pyrrolidine-3-carboxylic acid], with less than 10 nM.
Then `Cc1c(NC(=O)c2ccc(CNCCO)cn2)cccc1-c1cccc(NC(=O)c2cc3n(n2)CCCC3N2CCC(O)CC2)c1C` (centres unmarked) [Compound 78, N-(3'-(5-(((2-hydroxyethyl)amino)methyl)picolinamido)-2,2'-dimethyl-[1,1'-biphenyl]-3-yl)-4-(4-hydroxypiperidin-1-yl)-4,5,6,7-tetrahydropyrazolo[1,5-a]pyridine-2-carboxamide], with less than 10 nM; and `Cc1c(NC(=O)c2ccc(CNCCO)cn2)cccc1-c1cccc(NC(=O)c2cc3n(n2)CCCC3N2CCC(C(=O)O)CC2)c1C` (centres unmarked) [Compound 79, 1-(2-((3'-(5-(((2-hydroxyethyl)amino)methyl)picolinamido)-2,2'-dimethyl-[1,1'-biphenyl]-3-yl)carbamoyl)-4,5,6,7-tetrahydropyrazolo[1,5-a]pyridin-4-yl)piperidine-4-carboxylic acid], with less than 10 nM; and `Cc1c(NC(=O)c2ccc(CNCCO)cn2)cccc1-c1cccc(NC(=O)c2cc3n(n2)CCCC3NC(C)(C)C(=O)O)c1C` (centres unmarked) [Compound 80, 2-((2-((3'-(5-(((2-hydroxyethyl)amino)methyl)picolinamido)-2,2'-dimethyl-[1,1'-biphenyl]-3-yl)carbamoyl)-4,5,6,7-tetrahydropyrazolo[1,5-a]pyridin-4-yl)amino)-2-methylpropanoic acid], with less than 10 nM.
On to `O=C(Nc1cccc(-c2cccc(NC(=O)c3cc4n(n3)CCCC4O)c2Cl)c1Cl)c1ccc(CNCCO)cn1` (centres unmarked) [Compound 81, N-(2,2'-dichloro-3'-(5-(((2-hydroxyethyl)amino)methyl)picolinamido)-[1,1'-biphenyl]-3-yl)-4-hydroxy-4,5,6,7-tetrahydropyrazolo[1,5-a]pyridine-2-carboxamide], for which the IC50 is less than 10 nM.
Regarding `CC(=O)NCCNC1CCCn2nc(C(=O)Nc3cccc(-c4cccc(NC(=O)c5ccc(CNCCO)cn5)c4Cl)c3Cl)cc21` (centres unmarked) [Compound 82, 4-((2-acetamidoethyl)amino)-N-(2,2'-dichloro-3'-(5-(((2-hydroxyethyl)amino)methyl)picolinamido)-[1,1'-biphenyl]-3-yl)-4,5,6,7-tetrahydropyrazolo[1,5-a]pyridine-2-carboxamide], the IC50 is less than 10 nM.
Then `O=C(Nc1cccc(-c2cccc(NC(=O)c3cc4n(n3)CCCC4NCCO)c2Cl)c1Cl)c1ccc(CNCCO)cn1` (centres unmarked) [Compound 83, N-(2,2'-dichloro-3'-(5-(((2-hydroxyethyl)amino)methyl)picolinamido)-[1,1'-biphenyl]-3-yl)-4-((2-hydroxyethyl)amino)-4,5,6,7-tetrahydropyrazolo[1,5-a]pyridine-2-carboxamide], with less than 10 nM.
